How the values were obtained:
[1] = system: human pulmonary endothelial cells (HPMEC); assay: normal versus high glucose level-induced O2.- production, lucigenin-chemiluminescence; assay type: cell-based; conditions: LMH001 5 μM, 24 h in culture, NADPH 100 μM
Experimental: FIG. 11 is a graph showing the effects of LMH001 in culture on normal glucose level versus high glucose level-induced O2.^− production by human pulmonary endothelial cells (HPMEC). HPMEC were cultured in the medium with normal level of glucose (5 mM) or with high level of glucose (40 mM) in the presence or absence of LMH001 (5 μM) for 24 h. Cells were harvested and cell homogenates were used for measuring NADPH (100 μM)-dependent O2.^− production by lucigenin-chemiluminescence (n=3 experiments).
O2^− production by different cell types was measured using lucigenin (5 μM)-chemiluminescence. A microplate luminometer (LumiStar, BMG) was used, which allows the examination of 96 samples at the same time with kinetic reading facilities. […] Dark-adapted lucigenin (5 μM) was added into the well through an auto-dispenser located in the dark chamber just before reading. The light emission was recorded over a 60 minute period and expressed as arbitrary MLU measured by the illuminometer. Each experiment was performed in triplicate and the mean of 3 blank readings was subtracted from each corrected value for each reading. […]
O2^− production was also studied using total cell homogenate (for the endothelial cells and the fibroblasts). […] Soluble protein concentration was determined using a kit from Bio-Rad Laboratories Ltd. (Hertfordshire, U.K.). […]

[2] = system: mouse microvascular endothelial cells (SVEC4-10 cells); assay: MTT assay for cytotoxicity, SVEC4-10; assay type: cell-based; conditions: SVEC4-10, LMH001 5 and 10 μM, 24 h
Experimental: FIG. 8 is a graph showing no cytotoxicity of LMH001 on living mouse microvascular endothelial cells (SVEC4-10 cells) and human liver hepatocyte cells (HepG2 cells), assessed by means of an MTT assay. Cells were cultured with LMH001 (5 and 10 μM) for 24 h. MTT is a yellow tetrazolium reagent which can be converted by living cells to insoluble blue formazan crystal in the medium. The insoluble blue formazan crystals were then dissolved in DMSO and measured for absorbance at 570 nm by a plate reader. Higher absorbance corresponds to more living cells. Results are presented as mean±SD (n=3).
The mouse lymph node microvascular endothelial cell line (SVEC4-10) was from the American Type Culture Collection (CRL-2167) and grown in DMEM, containing 10% (v/v) heat inactivated foetal calf serum, 100 U/mL penicillin and […] streptomycin, in a humidified atmosphere at 37° C. with 5% CO2.
The potential cytotoxicity of LMH001 on cultured endothelial cells (SVEC4-10) and liver cells (HepG2) was assessed using the MIT assay as described previously (16). […] Absorbance was measured at 570 nm in an ELISA plate reader and the mean of 3 blank readings was subtracted from each corrected value.

[3] = system: bone marrow hematopoietic stem cells; assay: in vivo test of LMH001 on bone marrow hematopoietic stem cell proliferation (MTS assay); conditions: 2.2 mg/kg/day intra-peritoneal for two weeks, compared to vehicle injected controls, n=8 mice/per group
Experimental: FIG. 3 is a graph showing the effect of LMH001 (2 week, IP injection) on bone marrow hematopoietic stem cell proliferation in mice. Wild-type mice (C57BL6/J) at 5 months of age were injected intra-peritoneal with LMH001 at 2.2 mg/kg/day for two weeks. Bone marrow hematopoietic stem cells were isolated and test for cell proliferation by a MTS assay kit (Promega).
On the day of experiment, primary hematopoietic bone marrow cells were obtained from wild-type male C57BL/6 mice as described previously (11). Briefly, 12-16 week old mice were sacrificed by cervical dislocation and their hind legs dissected and carefully cleaned from adherent tissues. Next, the ends of each bone were removed to expose the marrow and this was collected by flushing the femurs and tibias using a 25 gauge needle loaded with Dulbecco's PBS. […]
The ex vivo proliferative capabilities of isolated BMSC or cultured cells were analyzed using the MTS proliferation assay. […] After 24 hours in culture medium containing LMH001 (0-10 μM), proliferation was assessed using the MTS (CellTiter 96 AQ; Promega, Madison, USA) assay according to the manufacturer's protocol. The absorbance at 490 nm was read using an ELISA plate reader (Perkin elmer), and the proliferation index calculated relative to the controls. The mean of 3 blank readings was subtracted from each corrected value. […]

O=C(OCc1cccc(O)c1O)c1ccc(O)c(CO)c1 [LMH001, (2,3,-dihydroxyphenyl)methyl 4-hydroxy-3-(hydroxymethyl)benzoate]
cell O2.- production under normal glucose levels ([1]; glucose 5 mM): no significant effect | high glucose level-induced O2.- production ([1]; glucose 40 mM): inhibited completely | cytotoxicity, MTT absorbance at 570 nm [2]: no significant difference | toxic effect on bone marrow hematopoietic stem cell proliferation [3]: no toxic effect

Reference: US20150045387A1, “Bi-Aromatic And Tri-Aromatic Compounds As NADPH Oxidase 2 (Nox2) Inhibitors” (The University of Surrey, priority 2011, published 2015)
